Legend:
[1] = S9 metabolic stability, rat; type: in vitro ADME; conditions: for Metabolic stability (% remaining at each time) Rat (min) 30: 30 min; for Metabolic stability (% remaining at each time) Rat (min) 45: 45 min; for Metabolic stability (% remaining at each time) Rat (min) 60: 60 min
Description: (§1) Among these, secondary MS measurements were conducted for Compound 25 (C0047), Compound 43 (C0216), and C0001 using the S9 method. This test measured the remaining % at 30, 45, and 60 minutes for four species: mouse, rat, dog, and human.

Organ distribution = type: in vivo; parameters: Organ distribution Plasma (ng/ml): concentration or dose not given beside the values
[2] = S9 metabolic stability, dog; type: in vitro ADME; conditions: for Metabolic stability (% remaining at each time) Dog (min) 30: 30 min; for Metabolic stability (% remaining at each time) Dog (min) 45: 45 min; for Metabolic stability (% remaining at each time) Dog (min) 60: 60 min
Description: as §1

[3] = Microsomal metabolic stability, rat; type: in vitro ADME
Description: (§2) Metabolic stability (MS) evaluation was conducted for the selected compounds by measuring in vitro stability in two species, rat and human, according to the microsomal stability measurement method. As a result, it was identified that MS varied depending on the transformation of parts A, B, and C.

Raw 264.7 cells = assay: LN (Laminin 421)-induced immune cell migration, Transwell; type: cell-based; conditions: Mus musculus, RAW264.7; for inhibition at 3 µM: 3 µM compound, LN (Laminin 421 1 µg/ml), 24 hours, % inhibition compared to control group, read-out: Migration inhibitor % (3uM); for EC50: LN-induced cell migration, read-out: EC50 for cell migration inhibition induced by LN
Outline: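 Raw 264.7 cells (1 x 10^5/well) seeded in upper chamber of gelatin-coated 5 µm Transwell with compound at 3 µM. Serum-free DMEM with Laminin 421 (1 µg/ml) in lower chamber. After 24 h, migrated cells fixed, hematoxylin-stained and counted by microscopy; expressed as % inhibition versus control.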

[4] = Microsomal metabolic stability, human; type: in vitro ADME
Description: as §2

[5] = S9 metabolic stability, mouse; type: in vitro ADME; conditions: for Metabolic stability (% remaining at each time) Mouse (min) 30: 30 min; for Metabolic stability (% remaining at each time) Mouse (min) 45: 45 min; for Metabolic stability (% remaining at each time) Mouse (min) 60: 60 min
Description: as §1

[6] = S9 metabolic stability, human; type: in vitro ADME; conditions: for Metabolic stability (% remaining at each time) Human (min) 30: 30 min; for Metabolic stability (% remaining at each time) Human (min) 45: 45 min; for Metabolic stability (% remaining at each time) Human (min) 60: 60 min
Description: as §1

KARS1 and 37LR = molecular target: T1, KARS1 and 37LR (Homo sapiens, UniProt Q15046); assay: Cell-free ELISA of KARS1 and 37LR (laminin receptor) binding; conditions: 10 µM compound, 1 hour, plate coated with KARS1 (1-207aa), LRF
T1 construct: KARS1 (1-207aa)
T1 sequence (Q15046 1-207): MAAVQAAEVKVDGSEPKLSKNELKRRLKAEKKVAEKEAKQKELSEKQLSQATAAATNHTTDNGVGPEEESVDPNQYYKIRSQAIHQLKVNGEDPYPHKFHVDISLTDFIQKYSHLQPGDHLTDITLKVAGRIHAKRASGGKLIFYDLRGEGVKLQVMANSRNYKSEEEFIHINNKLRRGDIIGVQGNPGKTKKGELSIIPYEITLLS
Description: Next, based on the mechanism of action, a cell-free ELISA analysis was conducted to select compounds with high inhibitory activity on the binding of KARS1 and LR (laminin receptor).

[7] = Rat pharmacokinetics (po and iv) and bioavailability; type: in vivo; conditions: for Cmax / Tmax / half-life / AUC: in vivo; for AUC value increase at 30 mpk: 30 mpk compared with 10 mpk
Description: For this purpose, formulations suitable for peroral administration (po) and intravenous injection (iv) for each compound were first selected to ensure stable PK progression.
The formulation was selected under the condition of maintaining a clear solution for more than 1 hour at 10 and 30 mpk doses based on po, and the iv formulation was modified when iv use was not possible based on po (Table 8).
To confirm the oral administration potential of the selected compounds, 10 mpk rat po PK was conducted. The PK profile and key indicators after administering 10 mpk to five compounds, C0001, 25, 41, 42, and 43, are shown in Figure 3 and Table 9.
Based on the previous 10 mpk po rat PK results, 30 mpk po rat PK was conducted for four compounds, C0001, 25, 41, and 43, to confirm changes in the blood PK profile of the substances with increasing doses.
For these compounds, 2 mpk iv rat PK was conducted to calculate bioavailability (BA) (Table 11).

Raw264.7 cells = assay: KARS1-induced trans-migration assay; type: cell-based, mouse; conditions: Mus musculus, RAW264.7; for inhibition at 1 µM: 1 µM compound, read-out: KARS1-induced Raw264.7 cell migration (% inhibition, 1uM); for EC50: KARS1-induced cell migration, 0.1~4 µM
Outline: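 Mouse Raw264.7 macrophage trans-migration induced by externally added KARS1 protein in place of laminin. Candidates with high inhibition at 1 µM were then tested at 0.1~4 µM.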

[8] = po, 10 mg/kg, 10 mpk (Table 11)
[9] = po, 30 mg/kg, 30 mpk (Table 11)

COc1ccc(CCN(Cc2ccc(N3CC[C@H](C(=O)O)C3)cc2)c2nc3cccc(F)c3s2)cc1 [Compound 25, (S)-1-(4-(((7-fluorobenzo[d]thiazol-2-yl)(4-methoxyphenethyl)amino)-methyl)phenyl)pyrrolidine-3-carboxylic acid]
Metabolic stability (% remaining at each time) Rat (min) 30 [1]: 86.0%
Metabolic stability (% remaining at each time) Rat (min) 45 [1]: 84.1%
Metabolic stability (% remaining at each time) Rat (min) 60 [1]: 88.5%
Organ distribution (ratio per plasma) Brain (Organ distribution; 0.5 h): 0.06
Organ distribution (ratio per plasma) Brain (Organ distribution; 6.0 h): 0.54
Organ distribution (ratio per plasma) Heart (Organ distribution; 0.5 h): 0.29
Organ distribution (ratio per plasma) Heart (Organ distribution; 6.0 h): 0.52
Organ distribution (ratio per plasma) Kidney (Organ distribution; 0.5 h): 0.38
Organ distribution (ratio per plasma) Kidney (Organ distribution; 6.0 h): 0.79
Organ distribution (ratio per plasma) Liver (Organ distribution; 0.5 h): 0.85
Organ distribution (ratio per plasma) Liver (Organ distribution; 6.0 h): 3.15
Organ distribution (ratio per plasma) Lung (Organ distribution; 0.5 h): 0.41
Organ distribution (ratio per plasma) Lung (Organ distribution; 6.0 h): 1.05
Organ distribution Plasma (ng/ml) (Organ distribution; 0.5 h): 29,901 ng/ml
Organ distribution Plasma (ng/ml) (Organ distribution; 6.0 h): 1,499 ng/ml
Metabolic stability (% remaining at each time) Dog (min) 30 [2]: 100.6%
Metabolic stability (% remaining at each time) Dog (min) 45 [2]: 93.5%
Metabolic stability (% remaining at each time) Dog (min) 60 [2]: 97.0%
Metabolic stability (% remaining at 30 min) Rat [3]: 77%
inhibition at 3 µM (Raw 264.7 cells): 83%
EC50 (Raw 264.7 cells): 5960 nM
Metabolic stability (% remaining at 30 min) Human [4]: 66%
Metabolic stability (% remaining at each time) Mouse (min) 30 [5]: 70.5%
Metabolic stability (% remaining at each time) Mouse (min) 45 [5]: 71.7%
Metabolic stability (% remaining at each time) Mouse (min) 60 [5]: 60.9%
Metabolic stability (% remaining at each time) Human (min) 30 [6]: 70.1%
Metabolic stability (% remaining at each time) Human (min) 45 [6]: 75.8%
Metabolic stability (% remaining at each time) Human (min) 60 [6]: 66.8%
inhibition at 10 µM (KARS1 and 37LR): 69.2%
Cmax ([7]; 10 mg/kg, po, 10 mpk): 1750 ng/mL
Tmax ([7]; 10 mg/kg, po, 10 mpk): 1 h
half-life ([7]; 10 mg/kg, po, 10 mpk): 1.34 h
Cmax ([7]; 30 mg/kg, po, 30 mpk): 14400 ng/mL
Tmax ([7]; 30 mg/kg, po, 30 mpk): 2 h
half-life ([7]; 30 mg/kg, po, 30 mpk): 0.76 h
AUC ([7]; iv, 2 mg/kg, 2 mpk): 2410 ng·h/mL
AUC ([7]; po, 10 mg/kg, 10 mpk): > 5000 ng·h/mL
AUC [7, 8]: 5410 ng·h/mL
AUC ([7]; po, 30 mg/kg, 30 mpk): 53000 ng·h/mL
AUC [7, 9]: 53000 ng·h/mL
BA (%) ([7]; po, 10 mpk against iv 2 mpk): 44.9%
AUC (ng*h/ml) ([7]; po, 10 mpk, listed as 25 (C0047), 10 mg/kg): 5,109 ng*h/ml
BA (%) ([7]; po, 30 mpk against iv 2 mpk): 146.6%
AUC value increase at 30 mpk ([7]; po): 10.4 times
inhibition at 1 µM (Raw264.7 cells): 96.2%
EC50 (Raw264.7 cells): 570 nM

COc1ccc(CCN(c2nc3cccc(F)c3s2)C(C)c2cccc(N3CC[C@@H](C(=O)O)C3)c2)cc1 (stereo partly drawn) [Compound 41, (3R)-1-(3-(1-((7-fluorobenzo[d]thiazol-2-yl)(4-methoxyphenethyl)-amino)ethyl)phenyl)pyrrolidine-3-carboxylic acid]
Metabolic stability (% remaining at 30 min) Rat [3]: 58%
inhibition at 3 µM (Raw 264.7 cells): 58.7%
Metabolic stability (% remaining at 30 min) Human [4]: 51%
inhibition at 10 µM (KARS1 and 37LR): 69.6%
Cmax ([7]; 10 mg/kg, po, 10 mpk): 4230 ng/mL
Tmax ([7]; 10 mg/kg, po, 10 mpk): 0.83 h
half-life ([7]; 10 mg/kg, po, 10 mpk): 1.96 h
Cmax ([7]; 30 mg/kg, po, 30 mpk): 6470 ng/mL
Tmax ([7]; 30 mg/kg, po, 30 mpk): 1 h
half-life ([7]; 30 mg/kg, po, 30 mpk): 2.13 h
AUC ([7]; po, 30 mg/kg, 30 mpk): 28500 ng·h/mL
AUC (ng*h/ml) ([7]; po, 10 mpk, 10 mg/kg): exceeding 5,000 ng*h/ml
AUC (ng*h/ml) ([7]; po, 10 mpk, listed as 41 (C0189), 10 mg/kg): 11,859 ng*h/ml
AUC value increase at 30 mpk ([7]; po): approximately 2.4 times
inhibition at 1 µM (Raw264.7 cells): 90.2%

COc1ccc(CCN(c2nc3cccc(F)c3s2)C(C)c2ccc(N3CC[C@H](C(=O)O)C3)cc2)cc1 (stereo partly drawn) [Compound 42, (3S)-1-(4-(1-((7-fluorobenzo[d]thiazol-2-yl)(4-methoxyphenethyl)-amino)ethyl)phenyl)pyrrolidine-3-carboxylic acid]
Metabolic stability (% remaining at 30 min) Rat [3]: 43%
inhibition at 3 µM (Raw 264.7 cells): 63.1%
Metabolic stability (% remaining at 30 min) Human [4]: 76%
inhibition at 10 µM (KARS1 and 37LR): 65.6%
Cmax ([7]; 10 mg/kg, po, 10 mpk): 240 ng/mL
Tmax ([7]; 10 mg/kg, po, 10 mpk): 0.67 h
half-life ([7]; 10 mg/kg, po, 10 mpk): 1.32 h
AUC ([7]; po, 10 mg/kg, 10 mpk): 1420 ng·h/mL
inhibition at 1 µM (Raw264.7 cells): 85.8%

COc1ccc(CCN(Cc2ccc(N3CC[C@H](C(=O)O)C3)cc2)c2nc3c(F)c(F)cc(F)c3s2)cc1 [Compound 43, (S)-1-(4-(((4-methoxyphenethyl)(4,5,7-trifluorobenzo[d]thiazol-2-yl)amino)methyl)phenyl)pyrrolidine-3-carboxylic acid]
Metabolic stability (% remaining at each time) Rat (min) 30 [1]: 99.2%
Metabolic stability (% remaining at each time) Rat (min) 45 [1]: 81.6%
Metabolic stability (% remaining at each time) Rat (min) 60 [1]: 88.0%
Organ distribution (ratio per plasma) Brain (Organ distribution; 0.5 h): 0.09
Organ distribution (ratio per plasma) Brain (Organ distribution; 6.0 h): 0.92
Organ distribution (ratio per plasma) Heart (Organ distribution; 0.5 h): 0.42
Organ distribution (ratio per plasma) Heart (Organ distribution; 6.0 h): 0.35
Organ distribution (ratio per plasma) Kidney (Organ distribution; 0.5 h): 0.61
Organ distribution (ratio per plasma) Kidney (Organ distribution; 6.0 h): 1.89
Organ distribution (ratio per plasma) Liver (Organ distribution; 0.5 h): 1.70
Organ distribution (ratio per plasma) Liver (Organ distribution; 6.0 h): 3.56
Organ distribution (ratio per plasma) Lung (Organ distribution; 0.5 h): 4.30
Organ distribution (ratio per plasma) Lung (Organ distribution; 6.0 h): 0.55
Organ distribution Plasma (ng/ml) (Organ distribution; 0.5 h): 19,420 ng/ml
Organ distribution Plasma (ng/ml) (Organ distribution; 6.0 h): 5,366 ng/ml
Metabolic stability (% remaining at each time) Dog (min) 30 [2]: 110.9%
Metabolic stability (% remaining at each time) Dog (min) 45 [2]: 117.3%
Metabolic stability (% remaining at each time) Dog (min) 60 [2]: 100.6%
Metabolic stability (% remaining at 30 min) Rat [3]: 80%
inhibition at 3 µM (Raw 264.7 cells): 31.1%
EC50 (Raw 264.7 cells): 5090 nM
Metabolic stability (% remaining at 30 min) Human [4]: 85%
Metabolic stability (% remaining at each time) Mouse (min) 30 [5]: 79.8%
Metabolic stability (% remaining at each time) Mouse (min) 45 [5]: 77.7%
Metabolic stability (% remaining at each time) Mouse (min) 60 [5]: 73.2%
Metabolic stability (% remaining at each time) Human (min) 30 [6]: 87.3%
Metabolic stability (% remaining at each time) Human (min) 45 [6]: 80.7%
Metabolic stability (% remaining at each time) Human (min) 60 [6]: 92.4%
inhibition at 10 µM (KARS1 and 37LR): 67.1%
Cmax ([7]; 10 mg/kg, po, 10 mpk): 3320 ng/mL
Tmax ([7]; 10 mg/kg, po, 10 mpk): 1.33 h
half-life ([7]; 10 mg/kg, po, 10 mpk): 0.95 h
Cmax ([7]; 30 mg/kg, po, 30 mpk): 12800 ng/mL
Tmax ([7]; 30 mg/kg, po, 30 mpk): 1.67 h
half-life ([7]; 30 mg/kg, po, 30 mpk): 1 h
AUC ([7]; iv, 2 mg/kg, 2 mpk): 2690 ng·h/mL
AUC ([7]; po, 10 mg/kg, 10 mpk): > 5000 ng·h/mL
AUC [7, 8]: 9710 ng·h/mL
AUC ([7]; po, 30 mg/kg, 30 mpk): 55300 ng·h/mL
AUC [7, 9]: 55300 ng·h/mL
BA (%) ([7]; po, 10 mpk against iv 2 mpk): 72.2%
AUC (ng*h/ml) ([7]; po, 10 mpk, listed as 43 (C0216), 10 mg/kg): 9,711 ng*h/ml
BA (%) ([7]; po, 30 mpk against iv 2 mpk): 137.0%
AUC value increase at 30 mpk ([7]; po): 5.7 times
inhibition at 1 µM (Raw264.7 cells): 98.4%
EC50 (Raw264.7 cells): 640 nM

— patent EP4656630A1, “NOVEL COMPOUND AS LYSYL-TRNA SYNTHETASE 1 INHIBITOR, AND USE THEREOF” (Zymedi Co., Ltd., priority 2023, dated 2024)
